# How the values were obtained:
# TE-1 = assay: Proliferation inhibition experiment, TE-1 (HNSCC); format: cell-based; settings: EGFR WT, KRAS WT
# Description: (§1) • (1) NSCLC: plated at 1500-2500 cells/100 μL in a 96-well low-adsorption plate (Corning, CLS7007-24EA) for 3D cell culture, in which the following cell lines and specific amounts were used: • NSCLC: 2000 cells/100 μL/well • NCI-H292: Cell Bank of the Chinese Academy of Sciences, SCSP-582 • NCI-H322: Cobioer, CBP60134 • NCI-H1650: ATCC, CRL-5883 • NCI-H1975: ATCC, CRL-5908 • SK-MES-1: CoBioer, CBP60152 • NCI-H1703: ATCC, HTB-43 • PC9+hB7H3: constructed as described above • CRC and HNSCC: plated at 1500-2000 cells/100 μL in a 96-well white-bottom plate (NUNC, 136101) for 2D cell culture, in which the following cell lines and specific amounts were used: • CRC: 1500 cells/100 μL/well • CCK-81: CoBioer, CBP60581 • HT-55: CoBioer, CBP60012 • H508: CoBioer, CBP60795 • LS180: CoBioer, CBP60034 • HNSCC: 1500 cells/100 μL/well • TE-1: CoBioer, CBP60655 • Colo680: CoBioer, CBP60452. (2) The antibody molecules prepared in advance by dilution were added to the corresponding cell well plate, mixed well, and cultured in an incubator at 37° C. with 5% CO2 for 5 days. • (3) After 5 days of continuous culture for proliferation inhibition assay, the Cell-Titer reagent (Promega, G7572) prepared in advance was added to cell wells, the plate was left to stand at room temperature for 15-25 min in the dark, and then CRC and HNSCC cells were directly detected by a multimode microplate reader (Molecular Devices, Spectra MAXi3). • (4) NSCLC: Cell-Titer and the cell mixture were transferred to a 96-well white-bottom plate (NUNC, 136101) and detected by a multimode microplate reader (Molecular Devices, Spectra MAXi3).
# H322 = assay: Proliferation inhibition experiment, H322 (NSCLC); format: cell-based; settings: EGFR WT, KRAS WT
# Description: as §1
# H1975 = assay: ADCC report assay, H1975; format: cell-based; settings: EGFR L858R T790M, KRAS WT, effector/target 10:1, 20 h
# Description: (§2) In the ADCC report assay, ADCC effector cells ((Promega, G7102)) are engineered cells in which FcRIIIa (V158) receptor is overexpressed into Jurkat T cells, which rapidly respond to ADCC through the NFAT-RE driving element within the Jurkat T cells.
# (§3) • (1) Tumor cells (cell lines listed in Table 3) and ADCC effector cells (Promega, G7102) were mixed well (1.5E4 cells: 1.5E5 cells/well/100 μL (1.5E5: 1.5E6 cells/mL)) according to an effector/target ratio (10:1), and added to a 96-well white plate (NUNC, 136101). • (2) The antibody molecules prepared in advance by dilution were added to the corresponding cell well plates, mixed well, and cultured at 37° C. with 5% CO2 for 20 h. • (3) The Bio-glo reagent (Promega, G755B) prepared in advance was added to the cell well plate, the plate was left to stand at room temperature for 10-15 min in the dark, and then the cells were detected by a multimode microplate reader (Molecular Devices, Spectra MAXi3).
# H1703 = assay: ADCC report assay, H1703; format: cell-based; settings: EGFR Amplification, KRAS WT, effector/target 10:1, 20 h
# Description: as §2, §3
# [1] = tested on: NCI-H358 tumor-bearing mice; assay: Anti-tumor efficacy in NCI-H358 tumor-bearing mice, combination with AMG510; format: in vivo, NOG mice; settings: NCI-H358, NOG mice, day 33; for Tumor volume (mm^3): antibodies 10 mg/kg i.p. Q3-4D x4 (h-IgG 20 mg/kg), AMG510 10 mg/kg intragastric QD x14; for Tumor growth inhibition (%): antibodies 10 mg/kg i.p. Q3-4D x4, AMG510 10 mg/kg intragastric QD x14, vs h-IgG 20 mg/kg
# Description: SPF female NOG mice (purchased from Beijing Vital River Laboratory Animal Technology Co., Ltd.) with certificate No. 1100112211001153625 were used in the experiment.
# NCI-H358 cells were routinely subcultured for the subsequent in-vivo experiment. The cells were collected by centrifugation. Then the NCI-H358 cells were resuspended in an equal-proportion mixture of PBS (1×) and Matrigel Matrix (Corning) to prepare a cell suspension with a cell concentration of 25×10^6 cells/mL. On day 0, 0.2 mL of the cell suspension was taken and subcutaneously inoculated to the right abdominal area of NOG mice to establish NCI-H358 tumor-bearing mouse models.
# Six days after the tumor cell inoculation, the tumor volume in each mouse was measured. The mice were grouped (with 7 mice in each group).
# Administration was performed on days 6, 9, 12, and 15 after the inoculation of NCI-H358 cells. Mice were monitored for tumor volume and body weight twice a week. […] Mice were monitored for tumor volume twice a week, and were monitored for body weight every day during the administration, and twice a week after the end of administration. […] On day 33 after the inoculation, the relative tumor growth inhibition (TG1%) was calculated by the following formula: TG1%=100%×(control group tumor volume−treatment group tumor volume)/(control group tumor volume−control group tumor volume before administration).
# Tumor volume measurement: The maximum length of major axis (L) and maximum length of minor axis (W) of tumors were measured with a vernier caliper, and tumor volume was calculated by the following formula: V=L×W^2/2. The mice were weighed using an electronic balance.
Substance,Max inhibition (%) Mean ± SD (TE-1) [%],"IC50 (TE-1; 2D culture, 5 days) [pM]",Max inhibition (%) Mean ± SD (H322) [%],"IC50 (H322; 3D culture, 5 days) [pM]",EC50 (H1975) [pM],EC50 (H1703) [pM],Tumor volume (mm^3) [1] [mm^3],Tumor growth inhibition (%) [1] [%]
amivantamab [JNJ372],32.2 ± 4.7,570000,38.2 ± 6.7,8060,63,119,196,82
zalutumumab [Zalu mAb],42.2 ± 1.1,,39.9 ± 0.8,,29,7,126,111
